# Structures can show the parent of a compound that is named as a salt.
# Legend:
# [1] = Determination of bioavailability (BA) in mouse; type: in vivo; details: fasted male ICR mice; oral 10 mg/kg vs intravenous 3 mg/kg; from plasma AUC
# Method: (5) Determination of Bioavailability (BA):
# The substance for analysis was dissolved in distilled water (for oral administration; 10 mg/kg) or physiological salt solution (for intravenous administration; 3 mg/kg) to prepare a solution for administration. This solution was administered to fasted ICR mice (male, 6 weeks aged), the whole blood was extracted from the heart under ether anesthesia at 5 min. (intravenous administration group only), 15 min., 30 min., 1 hr., 2 hr. and 4 hr. after the administration, and the plasma was separated by the centrifugation (3,500 rpm, 30 min., 4° C.) to produce the specimen (n=4). Using the above method for determining FXa inhibiting activity, the calibration curve for the substance for analysis was previously prepared and the concentration of the substance for analysis in the specimen was determined. The lower area of the concentration in plasma—time curve (AUC) was calculated and then the bioavailavility in the mouse (BA) was calculated according to the following formula: [formula]
# normal human plasma = test: Determination of anticoagulation activity (APTT); type: biochemical; details: concentration corresponding to 2-fold elongation of coagulation time
# Method: (3) Determination of Anticoagulation Activity (APTT):
# To 100 μL of normal human plasma (Ci-Trol®) manufactured by DADE, 100 μL of the specimen was added, and incubated at 37° C. for 1 minute. To this solution, 100 μL of APTT reagent (manufactured by DADE) which was, retained at 37° C. was added, and after incubating at 37° C. for 2 minutes, 100 μL of 25 mM calcium chloride solution was added, and the coagulation time was determined using the coagulation measurement apparatus manufactured by AMELUNG. The coagulation time when physiological salt solution was added instead of the analyte is used as a control, the concentration of the specimen corresponding to the 2-fold elongation of this coagulation time (CT2) is calculated, and this value is used as,the indication of the anticoagulation activity.
# [2] = target: T1, human acetylcholine esterase (Homo sapiens, UniProt P22303); test: Determination of acetylcholine esterase (AChE) inhibiting activity; type: biochemical; details: read-out: AChE inhibition activity IC50
# T1 construct: purchased Sigma C-5400
# Method: (4) Determination of Acetylcholine Esterase (AChE) Inhibiting Activity
# The substance for analysis was dissolved in distilled water as specimen. To 50 μL of the specimen serially diluted, 50 μL of enzyme solution, wherein human acetylcholine esterase (manufactured by Sigma, C-5400) had been dissolved in distilled water at 0.1 U/mL was added. To this solution, 50 μL of the solution which was prepared by dissolving 5,5′-dithiobis (manufactured by Nacarai Tesque, 141-01) in phosphate buffer (0.1M NaH2PO4—Na2HPO4, pH 7.0) at 0.5 mM is,added and mixed, and reacted with 50 μL of the solution wherein acetylthiocholine iodide (Wako Company, 017-09313) had been dissolved in phosphate buffer at 3 mM, at room temperature. As a control distilled water was added instead of the substance for analysis and the absorbance (A450) was determined over time. As a blank, phosphate buffer was added instead of the enzyme solution and the 50% inhibition activity (IC50),was determined.
# human FXa = human FXa (Homo sapiens, UniProt P00742); test: Determination of inhibiting activity of activated blood coagulation factor X (FXa), chromogenic substrate S-2765; type: biochemical; details: substrate S-2765, 30 min incubation, A405, read-out: Fxa inhibition activity IC50
# Method: (1) Determination of Inhibiting Activity of Activated Blood Coagulation Factor X (FXa):
# The substance for analysis was dissolved in water or water wherein a suitable concentration of organic solvents (DMSO ethanol or .methanol) had been added, as a specimen. To 70 μL of the specimen serially diluted with water, 90 μL of 100 mM Tris buffer (pH 8.4), 20 μL of 50 mM Tris buffer (pH 8.4) containing 50 mU/mL human FXa, and 2 mM substrate (Daiichi Chemical S-2765) were added and incubated for 30 min., 50 μL of 50% acetic acid was added, and the absorbance (A405) were determined. As a blank, Tris buffer was added instead of FXa while, as a control, water was added instead of the specimen. The 50% inhibition activity (IC50) was determined as the indication of FXa inhibiting activity.
# human thrombin = target: T2, human thrombin (Homo sapiens, UniProt P00734); test: Determination of thrombin inhibiting activity, chromogenic substrate S-2238; type: biochemical; details: substrate S-2238, 30 min incubation, A405, read-out: Thrombin inhibition activity IC50
# T2 construct: 1 U/mL human thrombin
# Method: (2) Determination of Thrombin Inhibiting Activity:
# To 70 μL of the specimen serially diluted with water, 90 μL of 100 mM Tris buffer (pH 8.4), 20 μL of 50 mM Tris buffer (pH 8.4) containing 1 U/mL human thrombin, and 2 mM substrate (Daiichi Chemical S-2238) were added and incubated for 30 min., 50μL of 50% acetic acid was added, and the absorbance (A405) were determined. As, a blank, Tris buffer was added instead of thrombin while as a control, water is added instead of the specimen. The 50% inhibition activity (IC50) was determined as the indication of thrombin inhibiting activity.
# T1 sequence (P22303 32-617 isoform P22303-2 limits assumed): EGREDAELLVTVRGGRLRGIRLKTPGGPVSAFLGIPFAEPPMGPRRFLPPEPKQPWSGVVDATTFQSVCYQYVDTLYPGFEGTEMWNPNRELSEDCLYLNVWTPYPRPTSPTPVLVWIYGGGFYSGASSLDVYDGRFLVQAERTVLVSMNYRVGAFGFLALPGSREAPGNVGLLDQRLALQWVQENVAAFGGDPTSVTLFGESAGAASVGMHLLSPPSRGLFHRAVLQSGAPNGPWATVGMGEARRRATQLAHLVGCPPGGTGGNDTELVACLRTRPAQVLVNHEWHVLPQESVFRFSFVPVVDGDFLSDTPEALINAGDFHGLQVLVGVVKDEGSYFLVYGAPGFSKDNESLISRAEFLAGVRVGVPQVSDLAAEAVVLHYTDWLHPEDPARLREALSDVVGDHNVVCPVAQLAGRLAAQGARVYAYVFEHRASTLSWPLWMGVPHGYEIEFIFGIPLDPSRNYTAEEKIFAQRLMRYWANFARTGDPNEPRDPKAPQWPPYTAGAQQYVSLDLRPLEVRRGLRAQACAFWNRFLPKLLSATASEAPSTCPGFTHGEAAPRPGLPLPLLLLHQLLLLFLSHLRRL
# Chain of human FXa (P00742 235-488 limits assumed): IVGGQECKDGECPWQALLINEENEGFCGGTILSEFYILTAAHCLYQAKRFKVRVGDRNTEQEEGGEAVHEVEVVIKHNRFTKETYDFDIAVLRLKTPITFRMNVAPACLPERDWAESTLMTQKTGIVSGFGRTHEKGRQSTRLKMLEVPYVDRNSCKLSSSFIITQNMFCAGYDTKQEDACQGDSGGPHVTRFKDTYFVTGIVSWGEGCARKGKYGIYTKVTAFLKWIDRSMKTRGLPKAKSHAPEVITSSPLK
# Chain of human FXa (P00742 41-179 partner limits assumed): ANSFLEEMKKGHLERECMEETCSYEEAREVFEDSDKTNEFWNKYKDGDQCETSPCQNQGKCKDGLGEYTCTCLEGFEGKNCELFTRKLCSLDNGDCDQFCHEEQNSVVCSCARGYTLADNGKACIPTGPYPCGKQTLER
Structure (SMILES),Mouse BA [1] [%],APTT CT2 (normal human plasma) [µM],IC50 [2] [µM],IC50 (human FXa) [µM],IC50 (human thrombin) [µM]
N=C(N)c1cccc(-c2cc(CNCC3CCN(CCO)CC3)cc(C(=O)O)c2)c1 [Example 72],13,11,> 250,1.2,> 1000
CC(=N)N1CCC(CNCc2cc(C(=O)O)cc(-c3cccc(C(=N)N)c3)c2)CC1 [Example 70],11,2.0,140,0.19,> 1000
N=C(N)c1cccc(-c2cc(CNCC3CCCCC3)cc(C(=O)O)c2)c1 [Example 73],–,13,> 250,1.7,> 1000
CC(=N)N1CCC(CN(C)Cc2cc(C(=O)O)cc(-c3cccc(C(=N)N)c3)c2)CC1 [Example 74],13,5.4,150,0.59,> 1000
CC(=N)N1CCC(CN(CCO)Cc2cc(C(=O)O)cc(-c3cccc(C(=N)N)c3)c2)CC1 [Example 81],7,2.8,130,0.21,820
CC(=N)N1CCC(COCc2cc(CCC(=O)O)cc(-c3cccc(C(=N)N)c3)c2)CC1 [Example 82],11,1.9,170,0.13,> 1000
"CC(=N)N1CCC(COCc2cc(C(=O)O)cc(-c3cccc(C(=N)N)c3)c2)CC1 [Example 61, 3-(3-Amidinophenyl)-5-[(1-acetoimidoyl-4-piperidinyl)methoxymethyl]benzoic Acid.hydrochloride]",10,0.76,49,0.063,> 1000

# From patent US6706745B1, “Biphenylamidine derivatives” (Teijin Limited, priority 1997, dated 2004)
